Laboratory results from ChEMBL document CHEMBL1134017, “Heterocycle-based MMP inhibitors with P2' substituents” (Bioorg Med Chem Lett, 2001).

Columns and labels:
Stromelysin-1 = Stromelysin-1 (Homo sapiens, UniProt P08254)
Description: Inhibition of Matrix metalloprotease-3

Neutrophil collagenase = Neutrophil collagenase (Homo sapiens, UniProt P22894)
Description: Inhibition of Matrix metalloprotease-8

Matrilysin [1] = biological target: T1, Matrilysin (Homo sapiens, UniProt P09237)
T1 sequence (P09237 whole entry): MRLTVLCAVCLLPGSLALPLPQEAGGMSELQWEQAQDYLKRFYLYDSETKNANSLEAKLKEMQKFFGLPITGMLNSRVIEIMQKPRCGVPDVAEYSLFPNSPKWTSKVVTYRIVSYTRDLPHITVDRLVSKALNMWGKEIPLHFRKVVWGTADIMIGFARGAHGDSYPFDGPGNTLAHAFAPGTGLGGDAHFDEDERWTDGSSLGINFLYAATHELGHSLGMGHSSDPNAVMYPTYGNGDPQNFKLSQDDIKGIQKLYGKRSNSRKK
Description: Inhibition of Matrix metalloprotease-7

[2] = biological target: Matrix metalloproteinase-9 (Homo sapiens, UniProt P14780)
Description: Inhibition of Matrix metalloprotease-9

Interstitial collagenase = biological target: T2, Interstitial collagenase (Homo sapiens, UniProt P03956)
T2 sequence (P03956 whole entry): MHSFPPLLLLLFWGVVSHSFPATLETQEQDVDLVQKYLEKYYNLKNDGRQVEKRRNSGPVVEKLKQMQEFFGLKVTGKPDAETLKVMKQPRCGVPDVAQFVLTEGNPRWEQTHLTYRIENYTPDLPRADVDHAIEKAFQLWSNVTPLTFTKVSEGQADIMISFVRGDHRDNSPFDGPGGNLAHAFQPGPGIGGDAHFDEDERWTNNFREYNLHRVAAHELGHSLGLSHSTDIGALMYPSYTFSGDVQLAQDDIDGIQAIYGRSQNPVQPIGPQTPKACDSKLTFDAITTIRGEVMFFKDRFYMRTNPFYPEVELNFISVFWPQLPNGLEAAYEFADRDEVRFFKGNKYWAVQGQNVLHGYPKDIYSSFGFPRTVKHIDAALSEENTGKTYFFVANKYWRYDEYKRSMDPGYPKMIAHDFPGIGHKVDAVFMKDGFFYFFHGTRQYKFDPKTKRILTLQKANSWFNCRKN
Description: Inhibition of human Matrix metalloprotease-1

Collagenase 3 = Collagenase 3 (Rattus norvegicus, UniProt P23097)
Description: Inhibition of Matrix metalloprotease-13

Matrilysin [3] = biological target: T1, Matrilysin; remark: listed apart in the source
Description: Inhibition of Matrix metalloprotease-7

Neutrophil collagenase, sequence (P22894 whole entry): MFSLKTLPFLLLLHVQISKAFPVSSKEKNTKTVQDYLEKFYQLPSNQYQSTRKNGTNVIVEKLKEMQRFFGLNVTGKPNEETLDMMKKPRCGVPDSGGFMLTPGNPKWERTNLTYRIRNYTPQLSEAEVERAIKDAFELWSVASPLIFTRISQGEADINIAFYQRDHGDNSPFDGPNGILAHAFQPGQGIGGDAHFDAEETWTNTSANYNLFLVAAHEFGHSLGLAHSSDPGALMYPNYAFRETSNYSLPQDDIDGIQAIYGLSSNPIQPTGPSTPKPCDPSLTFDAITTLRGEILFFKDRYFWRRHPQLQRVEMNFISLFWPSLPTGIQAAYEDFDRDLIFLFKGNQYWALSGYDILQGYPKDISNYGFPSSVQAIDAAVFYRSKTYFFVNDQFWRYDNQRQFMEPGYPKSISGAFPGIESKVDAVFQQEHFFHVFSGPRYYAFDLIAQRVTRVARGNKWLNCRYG
Matrix metalloproteinase-9, sequence (P14780 whole entry): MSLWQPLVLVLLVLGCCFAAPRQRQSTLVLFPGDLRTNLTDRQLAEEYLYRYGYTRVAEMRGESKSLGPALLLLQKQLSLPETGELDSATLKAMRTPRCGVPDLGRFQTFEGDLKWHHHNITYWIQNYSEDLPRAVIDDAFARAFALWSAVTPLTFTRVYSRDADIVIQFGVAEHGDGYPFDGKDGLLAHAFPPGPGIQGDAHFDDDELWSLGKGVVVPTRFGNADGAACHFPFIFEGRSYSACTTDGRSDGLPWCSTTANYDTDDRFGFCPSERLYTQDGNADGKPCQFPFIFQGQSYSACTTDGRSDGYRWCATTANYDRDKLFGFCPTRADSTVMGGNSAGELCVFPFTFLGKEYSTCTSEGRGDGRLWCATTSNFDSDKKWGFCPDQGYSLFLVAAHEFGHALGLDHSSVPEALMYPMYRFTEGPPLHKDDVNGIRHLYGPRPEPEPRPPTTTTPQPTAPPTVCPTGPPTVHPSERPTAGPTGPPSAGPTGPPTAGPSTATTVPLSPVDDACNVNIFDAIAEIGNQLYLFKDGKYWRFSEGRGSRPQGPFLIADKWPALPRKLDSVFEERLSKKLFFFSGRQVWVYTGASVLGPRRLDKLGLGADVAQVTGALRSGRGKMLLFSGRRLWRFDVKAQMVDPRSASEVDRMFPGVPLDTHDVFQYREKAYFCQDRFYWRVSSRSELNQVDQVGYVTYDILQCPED
Stromelysin-1, sequence (P08254 whole entry): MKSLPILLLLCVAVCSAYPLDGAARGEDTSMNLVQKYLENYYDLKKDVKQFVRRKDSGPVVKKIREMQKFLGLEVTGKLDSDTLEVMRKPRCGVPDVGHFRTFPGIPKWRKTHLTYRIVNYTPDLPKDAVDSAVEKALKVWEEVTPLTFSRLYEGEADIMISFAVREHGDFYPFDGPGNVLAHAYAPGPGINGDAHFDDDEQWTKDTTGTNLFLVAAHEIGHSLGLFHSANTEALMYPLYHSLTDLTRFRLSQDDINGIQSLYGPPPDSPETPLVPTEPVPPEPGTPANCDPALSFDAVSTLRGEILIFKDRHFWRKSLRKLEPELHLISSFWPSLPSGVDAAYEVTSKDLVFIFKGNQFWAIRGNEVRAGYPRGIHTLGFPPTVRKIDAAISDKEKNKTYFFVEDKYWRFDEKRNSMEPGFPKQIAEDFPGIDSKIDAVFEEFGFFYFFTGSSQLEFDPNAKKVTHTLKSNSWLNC

Row | Structure (SMILES) | IC50 (Stromelysin-1) [nM] | IC50 (Neutrophil collagenase) [nM] | IC50 (Matrilysin [1]) [nM] | IC50 [2] [nM] | IC50 (Interstitial collagenase) [nM] | IC50 (Collagenase 3) [nM] | IC50 (Matrilysin [3]) [nM]
1 | COc1ccc(S(=O)(=O)N2CCN(S(=O)(=O)c3cn(C)cn3)CC[C@@H]2C(=O)NO)cc1 | 39.2 | 6.6 | 2780 | 5.5 | 346 | 2.4 | –
2 | COc1ccc(S(=O)(=O)N2CN(C(C)C)C(=O)C[C@@H]2C(=O)NO)cc1 | – | 6.3 | – | 4.2 | 643 | 2.9 | 3460
3 | COc1ccc(S(=O)(=O)N2CN(C)C(=O)C[C@@H]2C(=O)NO)cc1 | – | 47.3 | – | 24.1 | 2200 | 7.9 | > 10000
4 | COc1ccc(S(=O)(=O)N2CN(C3CCCCC3)C(=O)C[C@@H]2C(=O)NO)cc1 | – | 2.8 | – | 3.3 | 465 | 0.75 | 776
5 | COCCN1CN(S(=O)(=O)c2ccc(OC)cc2)[C@@H](C(=O)NO)CC1=O | 180 | 102 | – | 52.5 | 696 | – | 10000
6 | COc1ccc(S(=O)(=O)N2CCN(C(=O)OCc3ccccc3)CC[C@@H]2C(=O)NO)cc1 | 14 | 3.3 | 737 | 1.8 | 97 | 2.1 | –
7 | COc1ccc(S(=O)(=O)N2CN(C(C)(C)C)C(=O)C[C@@H]2C(=O)NO)cc1 | – | 1.5 | – | 1.1 | 320 | 0.34 | 909

The next compounds have a lower IC50 (Interstitial collagenase) than those just listed; values first:

Row | IC50 (Stromelysin-1) [nM] | IC50 (Neutrophil collagenase) [nM] | IC50 (Matrilysin [1]) [nM] | IC50 [2] [nM] | IC50 (Interstitial collagenase) [nM] | IC50 (Collagenase 3) [nM] | IC50 (Matrilysin [3]) [nM] | Structure (SMILES)
8 | 6.3 | 1.8 | 905 | – | 28.9 | 0.84 | – | COc1ccc(S(=O)(=O)N2CC[C@H](C(=O)NO)N(S(=O)(=O)c3ccc(OC)cc3)CC2)cc1
9 | – | 6.4 | – | 6.8 | 22.2 | – | > 10000 | COc1ccc(S(=O)(=O)N2CN(Cc3ccccc3)C(=O)C[C@@H]2C(=O)NO)cc1
10 | 6.5 | 3.7 | – | 4.1 | 22 | 1.9 | 369 | COc1ccc(S(=O)(=O)N2CCN(C(C)C)C(=O)C[C@@H]2C(=O)NO)cc1
11 | 3.3 | 1.5 | – | 1 | 13.6 | – | 88 | COc1ccc(S(=O)(=O)N2CCN(Cc3ccccc3)C(=O)C[C@@H]2C(=O)NO)cc1
12 | 3.4 | – | – | – | 1.2 | 2 | – | COc1ccc(S(=O)(=O)N2C[C@@H]3CCCN3C(=O)C[C@@H]2C(=O)NO)cc1
